Measured values reported in patent US20150290106A1, “Dentotropic Conjugates and Compositions and Methods of Use Thereof” (BOARD OF REGENTS OF THE UNIVERSITY OF NEBRASKA, priority 2012, published 2015).

How the values were obtained:
[1] = Model tooth surface binding experiment (menthol-PPi/hydroxyapatite binding by 1H NMR); conditions: for speed of binding to HA (time to maximum binding): HA powder, vortex agitation, diphosphate
Experimental: Menthol-PPi (80 mg) was dissolved in deuterium oxide (D2O, 16.1159 g). Two drops (34.7 mg) of acetone was added as an internal reference when using NMR spectroscopy. Four time intervals were chosen for this study, each with three samples for each interval. Into each of twelve microcentrifuge tubes was added 10 mg hydroxyapatite (HA). One by one, […] was added to the tubes and then agitated with a vortex mixer at high speed for the allotted amount of time. Each tube was then centrifuged at 12.000 rpm for one minute. The liquid was then transferred to NMR tubes for analysis. Three blank NMR samples without the influence of HA were prepared for reference, as well as three control samples without pyrophosphate (i.e., menthol only) with HA. The spectra of the blank samples were compared to those of the experimental samples by observing the relative integration areas of the acetone peak vs. the signal from one methyl group of menthol's isopropyl component. No binding is observed without pyrophosphate.
An additional experiment was performed, changing the hydroxyapatite amount while keeping the vortex time fixed at 2 minutes for each sample, simulating the average time a person spends brushing his or her teeth. Menthol-PPi (80 mg) was dissolved in 16.14 g D2O. Two drops (25.7 mg) of acetone were again added as internal reference. One gram of the menthol-PPi solution was added to the HA test tubes just prior to vortex agitation, as before. Samples were again analyzed via ^1H NMR.

[2] = Menthol release in filtered saliva diluted 1:1 with PBS over 24 hours (GC/MS, FIG. 2); assay type: in vitro ADME, human; conditions: saliva/PBS 1:1, 37° C.
Experimental: FIG. 2 provides a graph of the menthol release after chloroform extraction over the course of 24 hours.
Into several 15-mL glass vials were placed 10 mg of menthol-PPi and 2 mL of fresh saliva. The saliva had been centrifuged to remove any free particles, then filtered through a 0.45 μm syringe filter to rid bacteria. It was then diluted 1:1 by volume with phosphate-buffered saline (PBS). Each sample was placed in a water bath incubator at 37° C., shaking at 40 rpm, for a specific amount of time over the course of 24 hours. One sample was withdrawn at each time interval, and vortexed for 10 seconds after direct addition of 2 mL of chloroform. The mixture was transferred to microcentrifuge tubes, after which each tube was centrifuged at 12,000 rpm for one minute to separate the chloroform phase from the water (saliva/PBS) phase. […] After GC/MS analysis of each sample, the total amount of menthol released was calculated using the integration areas of menthol and neomenthol, simplified into a ratio. […] The absolute amount, in μg, of menthol in each GC/MS vial was determined by multiplying the concentration by 1 mL, the total amount of solution in the vial. Then, the release amount was calculated by taking the previous value and multiplying it by a factor of 4, since the original sample was 2 mL. […]

| SMILES | HA-Bound Conjugate (% ± σ %) ([1]; 10 mg hydroxyapatite, vortex time 1 min) [%] | HA-Bound Conjugate (% ± σ %) ([1]; 10 mg hydroxyapatite, vortex time 2 min) [%] | HA-Bound Conjugate (% ± σ %) ([1]; 10 mg hydroxyapatite, vortex time 5 min) [%] | HA-Bound Conjugate (% ± σ %) ([1]; 10 mg hydroxyapatite, vortex time 10 min) [%] | HA-Bound Conjugate (% ± σ %) ([1]; 20 mg hydroxyapatite, time fixed at two minutes) [%] | HA-Bound Conjugate (% ± σ %) ([1]; 30 mg hydroxyapatite, time fixed at two minutes) [%] | HA-Bound Conjugate (% ± σ %) ([1]; 40 mg hydroxyapatite, time fixed at two minutes) [%] | speed of binding to HA (time to maximum binding) [1] | speed of binding to HA (time to maximum binding) ([1]; listed as menthol-PPi) | release profile of menthol from the pyrophosphate [2] | binding to HA ([1]; control samples without pyrophosphate (menthol only) with HA) |
| --- | --- | --- | --- | --- | --- | --- | --- | --- | --- | --- | --- |
| CC(C)[C@@H]1CC[C@@H](C)C[C@H]1OC(=O)COP(=O)([O-])OP(=O)([O-])[O-].[Na+].[Na+].[Na+] [Menthol-PPi, sodium 2-((1R,2S,5R)-2-isopropyl-5-methylcyclohexyloxy)-2-oxoethyl diphosphate] | 27.56 ± 4.44 | 25.69 ± 0.77 | 28.30 ± 2.70 | 28.25 ± 3.04 | 33.88 ± 6.32 | 45.04 ± 1.34 | 54.51 ± 3.65 | within one minute | very quickly | linear in nature |  |
| CC1CCC(C(C)C)C(O)C1 (centres unmarked) [menthol, reference compound] |  |  |  |  |  |  |  |  |  |  | No binding |
